Experimental data taken from patent publication US20070066590A1, “Phenyl-and pyridylpiperidine-derivatives as modulators of glucose metabolism” (priority 2003, published 2007).

How the values were obtained:
RUP3 = target: T1, RUP3 (Homo sapiens, UniProt Q8TDV5); experiment: 96-Well Cyclic AMP Membrane Assay for RUP3 (Membrane Cyclase Assay); format: biochemical; conditions: RUP3 membranes, cAMP Flashplate
T1 construct: expressed in transfected cells
T1 sequence (Q8TDV5 with tags, fused parts or gaps): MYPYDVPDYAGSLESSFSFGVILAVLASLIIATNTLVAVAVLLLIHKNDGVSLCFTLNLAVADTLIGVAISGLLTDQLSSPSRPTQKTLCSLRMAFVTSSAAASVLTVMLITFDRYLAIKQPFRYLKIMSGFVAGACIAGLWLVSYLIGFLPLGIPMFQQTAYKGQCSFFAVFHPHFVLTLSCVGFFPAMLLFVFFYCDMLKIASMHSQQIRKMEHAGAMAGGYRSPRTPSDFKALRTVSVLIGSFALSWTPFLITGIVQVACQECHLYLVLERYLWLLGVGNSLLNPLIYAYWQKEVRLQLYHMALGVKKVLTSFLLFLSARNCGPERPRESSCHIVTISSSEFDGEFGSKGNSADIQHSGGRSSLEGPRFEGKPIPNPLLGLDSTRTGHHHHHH
Experimental: 96-Well Cyclic AMP Membrane Assay for RUP3
• 1) Adenlyl cyclase Activation Flashplate Assay kit from Perkin Elmer—96 wells (SMP004B) and ^125I tracer (NEX130) which comes with the kit. […] All buffers and membranes should be kept cold (in ice bucket) while performing assay. 20 mM Hepes, pH7.4 1 mM MgCl2 100 mM NaCl 2× Regeneration Buffer (make in binding buffer): 20 mM Phosphocreatine (1.02 gm/200 ml binding buffer) 20 units Creatine phosphokinase (4 mg/200 ml) 20 uM GTP (make up 10.46 mg/ml in binding buffer and add 200 ul/200 ml) 0.2 mM ATP (22.04 mg/200 ml) […] (44.4 mg IBMX dissolved in 1 ml 100% DMSO first and then add the entire amount to 200 ml of buffer). Regeneration buffer can be aliquotted into 40-45 ml portions (in 50 ml sterile tubes) and kept frozen for up to 2 months. Simply put the tube in a beaker with room temperature water to thaw out the regeneration buffer on the day of the assay. […] (Prior to the start of the assay, the frozen membrane pellets for both RUP3 and CMV (cells transfected with an expression plasmid containing no RUP3 sequences), are suspended in binding buffer, usually 1 ml binding buffer for 1 plate of membranes. The membranes are kept in ice all the time, and a polytron (Brinkmann polytron, model # PT-3100) is used (setting 6-7, for 15-20 seconds) to obtain a homogeneous membrane suspension.) Protein concentration is determined by Bradford protein assay kit using instructions given in the kit, using the standard supplied with the kit as a reference. […]

HIT-T15 cells [1] = experiment: Stimulation of insulin secretion in HIT-T15 cells (GSIS); format: cell-based, hamster; conditions: 15 mM glucose; level comparable to forskolin
Experimental: D. Stimulation of Insulin Secretion in HIT-T15 Cells
It is known that stimulation of cAMP in HIT-T15 cells causes an increase in insulin secretion when the glucose concentration in the culture media is changed from 3 mM to 15 mM. Thus, RUP3 ligands can also be tested for their ability to stimulate glucose-dependent insulin secretion (GSIS) in HIT-T15 cells. In this assay, 30,000 cells/well in a 12-well plate are incubated in culture media containing 3 mM glucose and no serum for 2 hours. The media is then changed; wells receive media containing either 3 mM or 15 mM glucose, and in both cases the media contains either vehicle (DMSO) or RUP3 ligand at a concentration of interest Some wells receive media containing 1 uM forskolin as a positive control. All conditions are tested in triplicate. Cells are incubated for 30 minutes, and the amount of insulin secreted into the media is determined by ELISA, using a kit from either Peninsula Laboratories (Cat # ELIS-7536) or Crystal Chem Inc. (Cat # 90060).
(§1) In the first of these, RUP3 agonists are used to stimulate HIT-T15 cells, which express RUP3 at significant levels, as indicated in the Northern blot shown in FIG. 4. […] In this example a RUP3 agonist can be evaluated for its ability to stimulate cAMP production in HIT cells in comparison to the level seen with the adenyl cyclase activator forskolin.

isolated rat islets = experiment: Stimulation of insulin secretion in isolated rat islets; format: cell-based; conditions: 10 μM compound; increased glucose (e.g. 300 mg/dl)
Experimental: E. Stimulation of Insulin Secretion in Isolated Rat Islets
As with HIT-T15 cells, it is known that stimulation of cAMP in isolated rat islets causes an increase in insulin secretion when the glucose concentration in the culture media is changed from 60 mg/dl to 300 mg/dl. RUP3 is an endogenously expressed GPCR in the insulin-producing cells of rat islets. Thus, RUP3 ligands can also be tested for their ability to stimulate GSIS in rat islet cultures. This assay is performed as follows: • A. Select 75-150 islet equivalents (IEQ) for each assay condition using a dissecting microscope. Incubate overnight in low-glucose culture medium (Optional.) • B. Divide the islets evenly into triplicate samples of 25-40 islet equivalents per sample. Transfer to 40 μm mesh sterile cell strainers in wells of a 6-well plate with 5 ml of low (60 mg/dl) glucose Krebs-Ringers Buffer (KRB) assay medium. • C. Incubate 30 minutes (1 hour if overnight step skipped) at 37° C. and 5% CO2. Save the supernatants if a positive control for the RIA is desired. • D. Move strainers with islets to new wells with 5 ml/well low glucose KRB. […] Freeze and store at <−20° C. until insulin concentrations can be determined. • I. Insulin determinations are done as above, or by Linco Labs as a custom service, using their rat insulin RIA (Cat # RI-13K). […]

HIT-T15 cells [2] = experiment: Stimulation of cAMP in HIT-T15 cells; format: cell-based, hamster; conditions: compared with adenyl cyclase activator forskolin
Experimental: C. Stimulation of cAMP in HIT-T15 Cells
HIT-T15 (ATCC CRL#1777) is an immortalized hamster insulin-producing cell line. These cells express RUP3 and therefore can be used to assess the ability of RUP3 ligands to stimulate or inhibit cAMP accumulation via its endogenously expressed receptor. In this assay, cells are grown to 80% confluence and then distributed into a 96-well Flashplate (50,000 cells/well) for detection of cAMP via a “cAMP Flashplate Assay” (NEN, Cat # SMP004). Briefly, cells are placed into anti-cAMP antibody-coated wells that contain either vehicle, the test ligand(s) at a concentration of interest, or 1 uM forskolin. The latter is a direct activator of adenylyl cyclase and serves as a positive control for stimulation of cAMP in HIT-T15 cells. All conditions are tested in triplicate. […] Bound ^125I-cAMP is detected using a Wallac Microbeta Counter. The amount of cAMP in each sample is determined by comparison to a standard curve, obtained by placing known concentrations of cAMP in some wells on the plate.
as §1

Work on `CC(=O)CCc1ccc(Oc2ccc([N+](=O)[O-])c(N3CCC(Sc4ccccn4)CC3)c2)cc1` [Compound A51, 4-(4-{4-Nitro-3-[4-(pyridin-2-ylsulfanyl)-piperidin-1-yl]-phenoxy}-phenyl)-butan-2-one] yielded an IC50 (RUP3) of 346 nM.

`O=[N+]([O-])c1ccc(Oc2ccc(-n3cncn3)cc2)cc1N1CCC(Sc2ccccn2)CC1` [Compound A52, 2-{1-[2-Nitro-5-(4-[1,2,4]triazol-1-yl-phenoxy)-phenyl]-piperidin-4-ylsulfanyl}-pyridine] showed an IC50 (RUP3) of 230 nM.

With `CCCC1CCN(c2cc(Oc3ccc(C(=O)CC(=O)OC)cc3)ccc2[N+](=O)[O-])CC1` [Compound A30, 3-{4-[4-Nitro-3-(4-propyl-piperidin-1-yl)-phenoxy]-phenyl}-3-oxo-propionic acid methyl ester] the “insulin secretion in HIT cells” value (HIT-T15 cells [1]) was “stimulate insulin secretion”, the “glucose-dependent insulin release in isolated rat islets” value (isolated rat islets) was “enhance glucose-dependent insulin release” and the “stimulation of cAMP in HIT-T15 cells” value (HIT-T15 cells [2]) was “robust stimulator of cAMP”. It also gave an IC50 (RUP3) of 185 nM.
